From patent US20260132132A1, “3A,4,5,6-TETRAHYDRO-1 H-PYRAZOLO[3,4-C]PYRIDIN-7(7AH)-ONE DERIVATIVES AS FACTOR XIIA INHIBITORS” (KALVISTA PHARMACEUTICALS LIMITED, priority 2022, published 2026)

Legend:
Assay type in all cases: biochemical
Thrombin = Thrombin (Homo sapiens, UniProt P00734); experiment: Related protease inhibition: Thrombin, fluorogenic substrate; conditions: fluorogenic substrate at Km, 25° C.; H1-H3 = % activity at 40 μM; read-out: IC50 (human thrombin) nM
Procedure: (§1) Human serine protease enzyme Plasma Kallikrein, KLK1, FXa, Plasmin, Thrombin and Trypsin were assayed for enzymatic activity using an appropriate fluorogenic substrate at Km concentration, FXIa at fixed substrate concentration of 100 μM and various concentrations of the test compound.

FXa = FXa (Homo sapiens, UniProt P00742); experiment: Related protease inhibition: FXa, fluorogenic substrate; conditions: fluorogenic substrate at Km, 25° C.; H1-H3 = % activity at 40 μM; read-out: IC50 (human FXa) nM
Procedure: as §1

[1] = biological target: T1, Human Factor XIIa (hFXIIa) (Homo sapiens, UniProt P00748); experiment: Determination of Human Factor XIIa (hFXIIa) inhibition, fluorogenic substrate IC50 assay; conditions: fluorogenic substrate H-DPro-Phe-Arg-AFC at Km, 25° C., read-out: Human FXIIa IC50
T1 construct: purchased Enzyme Research Laboratories
T1 sequence (P00748 373-615 limits assumed): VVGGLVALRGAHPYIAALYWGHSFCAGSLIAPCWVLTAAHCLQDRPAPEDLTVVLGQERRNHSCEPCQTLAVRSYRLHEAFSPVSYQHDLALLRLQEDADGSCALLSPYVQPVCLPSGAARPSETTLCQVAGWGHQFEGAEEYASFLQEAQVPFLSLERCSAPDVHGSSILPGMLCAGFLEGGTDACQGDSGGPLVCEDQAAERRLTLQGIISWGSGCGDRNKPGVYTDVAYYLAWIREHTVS
T1 sequence (P00748 20-372 partner limits assumed): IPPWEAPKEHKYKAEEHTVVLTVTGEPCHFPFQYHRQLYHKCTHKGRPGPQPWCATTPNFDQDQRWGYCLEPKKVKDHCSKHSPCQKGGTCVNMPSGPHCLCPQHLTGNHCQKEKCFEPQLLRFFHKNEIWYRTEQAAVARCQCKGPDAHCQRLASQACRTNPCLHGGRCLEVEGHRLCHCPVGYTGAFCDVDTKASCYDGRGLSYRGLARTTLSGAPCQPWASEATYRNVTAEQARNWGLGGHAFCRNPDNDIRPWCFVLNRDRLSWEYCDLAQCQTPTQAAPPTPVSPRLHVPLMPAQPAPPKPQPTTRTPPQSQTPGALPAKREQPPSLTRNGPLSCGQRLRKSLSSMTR
Procedure: Determination of Human Factor XIIa (hFXIIa) inhibition
The Km for the cleavage of the substrate by hFXIIa was determined by standard transformation of the Michaelis-Menten equation, with subsequent inhibition assays performed at substrate Km concentration.

Sequence of FXa (P00742 235-488 limits assumed): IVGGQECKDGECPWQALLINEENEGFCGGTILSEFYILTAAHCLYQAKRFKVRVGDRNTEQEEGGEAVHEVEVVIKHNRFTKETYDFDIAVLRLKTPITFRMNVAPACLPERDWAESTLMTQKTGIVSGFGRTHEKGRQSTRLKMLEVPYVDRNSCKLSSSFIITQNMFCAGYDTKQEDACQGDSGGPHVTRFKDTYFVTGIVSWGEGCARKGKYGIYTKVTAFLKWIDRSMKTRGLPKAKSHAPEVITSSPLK
Sequence of FXa (P00742 41-179 partner limits assumed): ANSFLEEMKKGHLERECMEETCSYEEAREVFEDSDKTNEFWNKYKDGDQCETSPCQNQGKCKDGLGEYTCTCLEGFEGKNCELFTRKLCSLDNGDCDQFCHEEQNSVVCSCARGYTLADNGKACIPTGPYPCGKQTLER

SMILES	activity at 40 µM (Thrombin) [%]	activity at 40 µM (FXa) [%]	IC50 [1] [µM]
COCCNC(=O)c1nn(-c2cccc(Cl)c2)c2c1CCN(c1ccc3c(c1)C(=O)N(C)CC3)C2=O [Example 1410, 1-(3-chlorophenyl)-N-(2-methoxyethyl)-6-(2-methyl-1-oxo-1,2,3,4-tetrahydroisoquinolin-7-yl)-7-oxo-4,5,6,7-tetrahydro-1H-pyrazolo[3,4-c]pyridine-3-carboxamide]	< 20	20 to 80	0.3 to 1
CN1CCc2ccc(N3CCc4c(C(=O)N[C@@H]5COC[C@H]5O)nn(-c5cccc(Cl)c5)c4C3=O)cc2C1=O [Example 1411, 1-(3-chlorophenyl)-N-((3R,4S)-4-hydroxytetrahydrofuran-3-yl)-6-(2-methyl-1-oxo-1,2,3,4-tetrahydroisoquinolin-7-yl)-7-oxo-4,5,6,7-tetrahydro-1H-pyrazolo[3,4-c]pyridine-3-carboxamide]	> 80	> 80	0.3 to 1
CN1CCc2ccc(N3CCc4c(C(=O)N[C@@H]5COC[C@@H]5O)nn(-c5cccc(Cl)c5)c4C3=O)cc2C1=O [Example 1412, 1-(3-chlorophenyl)-N-((3R,4R)-4-hydroxytetrahydrofuran-3-yl)-6-(2-methyl-1-oxo-1,2,3,4-tetrahydroisoquinolin-7-yl)-7-oxo-4,5,6,7-tetrahydro-1H-pyrazolo[3,4-c]pyridine-3-carboxamide]	20 to 80	20 to 80	0.3 to 1
CCNC(=O)c1nn(-c2cccc(Cl)c2)c2c1CCN(c1cccc(N3C(=O)C[C@H]4CCC[C@H]43)c1)C2=O [Example 1413, 1-(3-chlorophenyl)-N-ethyl-7-oxo-6-(3-((3aR,6aR)-2-oxohexahydrocyclopenta[b]pyrrol-1(2H)-yl)phenyl)-4,5,6,7-tetrahydro-1H-pyrazolo[3,4-c]pyridine-3-carboxamide]	20 to 80	> 80	10 to 40
Cc1ccc(CNC(=O)c2nn(-c3cccc(Cl)c3)c3c2CCN(c2ccc4c(c2)C(=O)N(CCO)CC4)C3=O)cn1 [Example 1414, 1-(3-chlorophenyl)-6-(2-(2-hydroxyethyl)-1-oxo-1,2,3,4-tetrahydroisoquinolin-7-yl)-N-((6-methylpyridin-3-yl)methyl)-7-oxo-4,5,6,7-tetrahydro-1H-pyrazolo[3,4-c]pyridine-3-carboxamide]	20 to 80	20 to 80	0.1 to 0.3
CN1CCc2ccc(N3CCc4c(C(=O)N[C@H]5COC[C@@H]5O)nn(-c5cccc(Cl)c5)c4C3=O)cc2C1=O [Example 1415, 1-(3-chlorophenyl)-N-((3S,4R)-4-hydroxytetrahydrofuran-3-yl)-6-(2-methyl-1-oxo-1,2,3,4-tetrahydroisoquinolin-7-yl)-7-oxo-4,5,6,7-tetrahydro-1H-pyrazolo[3,4-c]pyridine-3-carboxamide]	> 80	> 80	0.1 to 0.3
CN1CCc2ccc(N3CCc4c(C(=O)N[C@H]5COC[C@H]5O)nn(-c5cccc(Cl)c5)c4C3=O)cc2C1=O [Example 1416, 1-(3-chlorophenyl)-N-((3S,4S)-4-hydroxytetrahydrofuran-3-yl)-6-(2-methyl-1-oxo-1,2,3,4-tetrahydroisoquinolin-7-yl)-7-oxo-4,5,6,7-tetrahydro-1H-pyrazolo[3,4-c]pyridine-3-carboxamide]	20 to 80	20 to 80	0.1 to 0.3
CN1CCc2ccc(N3CCc4c(C(=O)NCCCO)nn(-c5cccc(Cl)c5)c4C3=O)cc2C1=O [Example 1417, 1-(3-chlorophenyl)-N-(3-hydroxypropyl)-6-(2-methyl-1-oxo-1,2,3,4-tetrahydroisoquinolin-7-yl)-7-oxo-4,5,6,7-tetrahydro-1H-pyrazolo[3,4-c]pyridine-3-carboxamide]	20 to 80	20 to 80	0.3 to 1
CCNC(=O)c1nn(-c2cccc(Cl)c2)c2c1CCN(c1cc3c(cn1)OCCN(C)C3=O)C2=O [Example 1418, 1-(3-chlorophenyl)-N-ethyl-6-(4-methyl-5-oxo-2,3,4,5-tetrahydropyrido[4,3-f][1,4]oxazepin-7-yl)-7-oxo-4,5,6,7-tetrahydro-1H-pyrazolo[3,4-c]pyridine-3-carboxamide]	> 80	20 to 80	0.3 to 1
CCNC(=O)c1nn(-c2cccc(Cl)c2)c2c1CCN(c1ccc(OC)c(CN3CCCCC3)c1)C2=O [Example 1419, 1-(3-chlorophenyl)-N-ethyl-6-(4-methoxy-3-(piperidin-1-ylmethyl)phenyl)-7-oxo-4,5,6,7-tetrahydro-1H-pyrazolo[3,4-c]pyridine-3-carboxamide]	20 to 80	20 to 80	1 to 3
CCNC(=O)c1nn(-c2cccc(Cl)c2)c2c1CCN(c1cccc(N3CCN(C)CC3=O)c1)C2=O [Example 1420, 1-(3-chlorophenyl)-N-ethyl-6-(3-(4-methyl-2-oxopiperazin-1-yl)phenyl)-7-oxo-4,5,6,7-tetrahydro-1H-pyrazolo[3,4-c]pyridine-3-carboxamide]	> 80	> 80	3 to 10
CN1CCc2ccc(N3CCc4c(C(=O)NCC5(O)CC5)nn(-c5cccc(Cl)c5)c4C3=O)cc2C1=O [Example 1421, 1-(3-chlorophenyl)-N-((1-hydroxycyclopropyl)methyl)-6-(2-methyl-1-oxo-1,2,3,4-tetrahydroisoquinolin-7-yl)-7-oxo-4,5,6,7-tetrahydro-1H-pyrazolo[3,4-c]pyridine-3-carboxamide]	> 80	> 80	0.3 to 1
CCNC(=O)c1nn(-c2cccc(Cl)c2)c2c1CCN(c1ccc3c(c1)NCCO3)C2=O [Example 1422, 1-(3-chlorophenyl)-6-(3,4-dihydro-2H-benzo[b][1,4]oxazin-6-yl)-N-ethyl-7-oxo-4,5,6,7-tetrahydro-1H-pyrazolo[3,4-c]pyridine-3-carboxamide]	20 to 80	20 to 80	10 to 40
CCNC(=O)c1nn(-c2cccc(Cl)c2)c2c1CCN(c1cccc(N3CCN(C)CC3)c1)C2=O [Example 1423, 1-(3-Chlorophenyl)-N-ethyl-6-(3-(4-methylpiperazin-1-yl)phenyl)-7-oxo-4,5,6,7-tetrahydro-1H-pyrazolo[3,4-c]pyridine-3-carboxamide]	20 to 80	20 to 80	1 to 3
CN1CCc2ccc(N3CCc4c(C(=O)NC5CCNCC5(F)F)nn(-c5cccc(Cl)c5)c4C3=O)cc2C1=O (stereo not drawn) [Example 1424, 1-(3-chlorophenyl)-N-(3,3-difluoropiperidin-4-yl)-6-(2-methyl-1-oxo-1,2,3,4-tetrahydroisoquinolin-7-yl)-7-oxo-4,5,6,7-tetrahydro-1H-pyrazolo[3,4-c]pyridine-3-carboxamide]	> 80	20 to 80	0.1 to 0.3
CN1CCc2ccc(N3CCc4c(C(=O)NC5CNCC5(F)F)nn(-c5cccc(Cl)c5)c4C3=O)cc2C1=O (stereo not drawn) [Example 1425, 1-(3-chlorophenyl)-N-(4,4-difluoropyrrolidin-3-yl)-6-(2-methyl-1-oxo-1,2,3,4-tetrahydroisoquinolin-7-yl)-7-oxo-4,5,6,7-tetrahydro-1H-pyrazolo[3,4-c]pyridine-3-carboxamide]	> 80	> 80	0.3 to 1
CCNC(=O)c1nn(-c2cccc(Cl)c2)c2c1CCN(c1cccc(N3CCOCC3=O)c1)C2=O [Example 1426, 1-(3-chlorophenyl)-N-ethyl-7-oxo-6-(3-(3-oxomorpholino)phenyl)-4,5,6,7-tetrahydro-1H-pyrazolo[3,4-c]pyridine-3-carboxamide]	20 to 80	20 to 80	10 to 40
CN1CCc2ccc(N3CCc4c(C(=O)NCC5(N)CC5)nn(-c5cccc(Cl)c5)c4C3=O)cc2C1=O [Example 1427, N-((1-aminocyclopropyl)methyl)-1-(3-chlorophenyl)-6-(2-methyl-1-oxo-1,2,3,4-tetrahydroisoquinolin-7-yl)-7-oxo-4,5,6,7-tetrahydro-1H-pyrazolo[3,4-c]pyridine-3-carboxamide]	> 80	> 80	0.3 to 1
CCNC(=O)c1nn(-c2cccc(Cl)c2)c2c1CCN(c1cccc(N3CC4(COC4)CC3=O)c1)C2=O [Example 1428, 1-(3-chlorophenyl)-N-ethyl-7-oxo-6-(3-(7-oxo-2-oxa-6-azaspiro[3.4]octan-6-yl)phenyl)-4,5,6,7-tetrahydro-1H-pyrazolo[3,4-c]pyridine-3-carboxamide]	> 80	> 80	10 to 40
